“And” between values parts separate entries of the source, which are not always exact repeats. Equal values may be shown once. Inconclusive results and toxic doses are left out. Rule for the calls: active = survival T/C of 150% or more; inactive = T/C below 125% in these data.
System: P388 leukemia ip, CD2F1 mice, survival T/C
Test: NCI In Vivo Anticancer Drug Screen. Data for tumor model P388 Leukemia (intraperitoneal) in CD2F1 (CDF1) mice
Conditions: endpoint: median survival time, higher = longer survival
Method in brief: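 Mice carrying the transplanted tumor received test compound or vehicle. Survival was recorded in each group, and the value is the treated-group measurement divided by that of the vehicle-treated control group.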

[1] = dose: 50.0 mg/kg/injection, schedule: Q01DX005 (ip), vehicle: Klucel (hydroxypropylcellulose) (HPC)
[2] = dose: 100.0 mg/kg/injection, schedule: Q01DX005 (ip), vehicle: Klucel (hydroxypropylcellulose) (HPC)
[3] = dose: 50.0 mg/kg/injection, schedule: Q01DX005 (ip), vehicle: saline with Tween-80
[4] = dose: 100.0 mg/kg/injection, schedule: Q01DX005 (ip), vehicle: saline with Tween-80
[5] = dose: 200.0 mg/kg/injection, schedule: Q01DX005 (ip), vehicle: saline with Tween-80
[6] = dose: 100.0 mg/kg/injection, schedule: Q01DX001 (ip), vehicle: Klucel (hydroxypropylcellulose) (HPC)
[7] = dose: 50.0 mg/kg/injection, schedule: Q01DX009 (ip), vehicle: saline
[8] = dose: 100.0 mg/kg/injection, schedule: Q01DX009 (ip), vehicle: saline
[9] = dose: 200.0 mg/kg/injection, schedule: Q01DX009 (ip), vehicle: saline
[10] = dose: 12.5 mg/kg/injection, schedule: Q01DX009 (ip), vehicle: Klucel (hydroxypropylcellulose) (HPC)
[11] = dose: 50.0 mg/kg/injection, schedule: Q01DX009 (ip), vehicle: Klucel (hydroxypropylcellulose) (HPC)
[12] = dose: 100.0 mg/kg/injection, schedule: Q01DX009 (ip), vehicle: Klucel (hydroxypropylcellulose) (HPC)
[13] = dose: 100.0 mg/kg/injection, schedule: Q01DX009 (ip), vehicle: saline with Tween-80
[14] = dose: 200.0 mg/kg/injection, schedule: Q01DX001 (ip), vehicle: Klucel (hydroxypropylcellulose) (HPC)
[15] = dose: 400.0 mg/kg/injection, schedule: Q01DX001 (ip), vehicle: Klucel (hydroxypropylcellulose) (HPC)
[16] = dose: 200.0 mg/kg/injection, schedule: Q01DX009 (ip), vehicle: Klucel (hydroxypropylcellulose) (HPC)
[17] = dose: 12.5 mg/kg/injection, schedule: Q01DX009 (ip), vehicle: other
[18] = dose: 25.0 mg/kg/injection, schedule: Q01DX009 (ip), vehicle: other

Measured: T/C

COc1cccc2c1C(=O)c1c(O)c3c(c(O)c1C2=O)CC(O)(C(O)CO)CC3OC1CC(N2CCSCC2)C(O)C(C)O1 (centres undefined)
inactive: dose: 3.12 mg/kg/injection, schedule: Q04DX003 (ip), vehicle: saline 103 % of control | dose: 6.25 mg/kg/injection, schedule: Q04DX003 (ip), vehicle: saline 110 % of control | dose: 12.5 mg/kg/injection, schedule: Q04DX003 (ip), vehicle: saline 110 % of control and 112 % of control | dose: 25.0 mg/kg/injection, schedule: Q04DX003 (ip), vehicle: saline 122 % of control | dose: 100.0 mg/kg/injection, schedule: Q04DX003 (ip), vehicle: saline 122 % of control

[I][Hg][CH2]C1COCC([CH2][Hg][I])O1.[I][Hg][CH2]C1COCC([CH2][Hg][I])O1 (centres undefined)
inactive: dose: 3.13 mg/kg/injection, schedule: Q01DX009 (ip), vehicle: saline with Tween-80 109 % of control | dose: 3.13 mg/kg/injection, schedule: Q04DX003 (ip), vehicle: saline with Tween-80 109 % of control | dose: 6.25 mg/kg/injection, schedule: Q01DX009 (ip), vehicle: saline with Tween-80 113 % of control | dose: 6.25 mg/kg/injection, schedule: Q04DX003 (ip), vehicle: saline with Tween-80 86 % of control | dose: 12.5 mg/kg/injection, schedule: Q01DX009 (ip), vehicle: saline with Tween-80 118 % of control | dose: 12.5 mg/kg/injection, schedule: Q04DX003 (ip), vehicle: saline with Tween-80 100 % of control

[CH3][Sn]([CH3])([O]C(=O)c1ccccc1)[O]C(=O)c1ccccc1
inactive: [1] 107 % of control | [2] 108 % of control

Clc1cc2[nH]cnc2c(Cl)n1
inactive: dose: 6.25 mg/kg/injection, schedule: Q04DX002 (ip), vehicle: saline 102 % of control | dose: 12.5 mg/kg/injection, schedule: Q04DX002 (ip), vehicle: saline 102 % of control | dose: 25.0 mg/kg/injection, schedule: Q04DX002 (ip), vehicle: saline 103 % of control

CC(=O)/C(C(=N)c1nc(C)c(C(C)=O)c(C(N)=O)n1)=C(\C)O
inactive: [1] 103 % of control | [2] 100 % of control

Cc1ccc2c(c1)C1(SCCC(=O)N1c1ccc(Cl)cc1)C(=O)N2 (centres undefined)
inactive: [3] 103 % of control | [4] 95 % of control | [5] 100 % of control

C(=N/Nc1ccccc1)/C(=N\Nc1ccccc1)C1CCN(Cc2ccccc2)CC1
inactive: dose: 25.0 mg/kg/injection, schedule: Q01DX001 (ip), vehicle: Klucel (hydroxypropylcellulose) (HPC) 103 % of control | dose: 50.0 mg/kg/injection, schedule: Q01DX001 (ip), vehicle: Klucel (hydroxypropylcellulose) (HPC) 107 % of control | [6] 100 % of control

NNc1ccc(N(CCO)CCO)nn1
inactive: [7] 93 % of control | [8] 100 % of control | [9] 105 % of control

Nc1c(Cl)ncnc1NCCN1CCOCC1
inactive: [1] 99 % of control | [2] 96 % of control

O=C(NNC(=O)c1cccc(C(=O)NNC(=O)c2ccc(Cl)c(Cl)c2)n1)c1ccc(Cl)c(Cl)c1
inactive: [10] 106 % of control and 98 % of control | dose: 25.0 mg/kg/injection, schedule: Q01DX009 (ip), vehicle: Klucel (hydroxypropylcellulose) (HPC) 108 % of control and 95 % of control | [11] 105 % of control and 122 % of control | [12] 119 % of control

CC12CCC(O)CC1CCC1C2CCC2(C)C(c3ccc(=O)oc3)CCC12O (centres undefined)
inactive: dose: 0.31 mg/kg/injection, schedule: Q01DX009 (ip), vehicle: saline with Tween-80 100 % of control | dose: 0.62 mg/kg/injection, schedule: Q01DX009 (ip), vehicle: saline with Tween-80 97 % of control | dose: 1.25 mg/kg/injection, schedule: Q01DX009 (ip), vehicle: saline with Tween-80 97 % of control | dose: 2.5 mg/kg/injection, schedule: Q01DX009 (ip), vehicle: saline with Tween-80 103 % of control

C1=Nc2ccccc2Oc2ccc3ccccc3c21
inactive: dose: 50.0 mg/kg/injection, schedule: Q01DX009 (ip), vehicle: saline with Tween-80 107 % of control | [13] 99 % of control | dose: 200.0 mg/kg/injection, schedule: Q01DX009 (ip), vehicle: saline with Tween-80 107 % of control

Nc1ncc2[nH]cnc2n1
inactive: [1] 102 % of control | [2] 100 % of control | dose: 200.0 mg/kg/injection, schedule: Q01DX005 (ip), vehicle: Klucel (hydroxypropylcellulose) (HPC) 103 % of control

COC(=O)/C=C(\C)Oc1cc(Cl)c(Cl)cc1Cl
inactive: [13] 91 % of control | dose: 400.0 mg/kg/injection, schedule: Q01DX009 (ip), vehicle: saline with Tween-80 87 % of control

COc1ccc(C(=O)NC(c2ccccc2)c2cccs2)cc1 (centres undefined)
inactive: [6] 113 % of control | [14] 104 % of control | [15] 109 % of control

COc1ccccc1/C=C/C1=C(C)C(=O)CC(c2ccccc2OC)C1C (centres undefined)
inactive: [12] 100 % of control | [16] 98 % of control | dose: 400.0 mg/kg/injection, schedule: Q01DX009 (ip), vehicle: Klucel (hydroxypropylcellulose) (HPC) 92 % of control

O=C(Nc1cnns1)c1ccccc1
inactive: [17] 105 % of control | [18] 99 % of control | dose: 50.0 mg/kg/injection, schedule: Q01DX009 (ip), vehicle: other 102 % of control | dose: 100.0 mg/kg/injection, schedule: Q01DX009 (ip), vehicle: other 105 % of control | dose: 200.0 mg/kg/injection, schedule: Q01DX009 (ip), vehicle: other 89 % of control

O=C(NCc1ccccc1)Nc1cccc2c(NC(=O)NCc3ccccc3)cccc12
inactive: dose: 30.0 mg/kg/injection, schedule: Q01DX005 (ip), vehicle: saline with Tween-80 91 % of control | dose: 60.0 mg/kg/injection, schedule: Q01DX005 (ip), vehicle: saline with Tween-80 86 % of control and 89 % of control | dose: 120.0 mg/kg/injection, schedule: Q01DX005 (ip), vehicle: saline with Tween-80 86 % of control

COC(=O)CCC(Br)(Br)Br
inactive: [11] 94 % of control | [12] 99 % of control

CC(=O)O[C@@H]1C[C@H]2C(C)(C)C(=O)C=C[C@]2(C)[C@H]2CC[C@]3(C)C(=CC(=O)O[C@H]3c3ccoc3)[C@@]21C
inactive: dose: 2.5 mg/kg/injection, schedule: Q01DX009 (ip), vehicle: Klucel (hydroxypropylcellulose) (HPC) 103 % of control | dose: 5.0 mg/kg/injection, schedule: Q01DX009 (ip), vehicle: Klucel (hydroxypropylcellulose) (HPC) 100 % of control | dose: 10.0 mg/kg/injection, schedule: Q01DX009 (ip), vehicle: Klucel (hydroxypropylcellulose) (HPC) 103 % of control and 97 % of control | dose: 20.0 mg/kg/injection, schedule: Q01DX009 (ip), vehicle: Klucel (hydroxypropylcellulose) (HPC) 95 % of control | dose: 40.0 mg/kg/injection, schedule: Q01DX009 (ip), vehicle: Klucel (hydroxypropylcellulose) (HPC) 103 % of control

C1CC2OCC1O2 (centres undefined)
inactive: [7] 100 % of control | [8] 106 % of control | [9] 100 % of control

COC(=O)CN(CC(=O)OC)C1CC1N(CC(=O)OC)CC(=O)OC (centres undefined)
inactive: [11] 89 % of control | [6] 98 % of control | [12] 97 % of control | [14] 102 % of control | [16] 95 % of control | [15] 89 % of control

Cc1cc(N(CCOS(C)(=O)=O)CCOS(C)(=O)=O)ccc1C=Nc1ccc(-c2csc(-c3ccccc3)n2)c(Cl)c1
inactive: dose: 6.25 mg/kg/injection, schedule: Q01DX009 (ip), vehicle: Klucel (hydroxypropylcellulose) (HPC) 110 % of control | [10] 122 % of control | [12] 98 % of control and 87 % of control

CCCCCCCCCCCCCCCCCCCC
inactive: dose: 6.25 mg/kg/injection, schedule: Q01DX009 (ip), vehicle: other 112 % of control | [17] 90 % of control | [18] 111 % of control | dose: 50.0 mg/kg/injection, schedule: Q04DX003 (ip), vehicle: other 91 % of control | dose: 100.0 mg/kg/injection, schedule: Q04DX003 (ip), vehicle: other 91 % of control

CCB1OC2C(COC(C)=O)OC(OC(C)=O)C2O1 (centres undefined)
inactive: [3] 101 % of control | [4] 110 % of control | [5] 113 % of control

CC(C)=CC(=O)OCCN(C)C
inactive: [7] 109 % of control | [8] 93 % of control | [9] 93 % of control
